Laboratory results published in patent US12295936B2, “Immunomodulating urea azalides” (Zoetis Services LLC, priority 2020, dated 2025).
Entries after “also recorded” stand apart in the source; their conditions may differ. Like-named read-outs stand apart in the source and are kept apart here.

Key:
P. multocida 46572 = test: In vivo mouse lung infection challenge model (murine efficacy); parameters: species or system CD-1 female mice; conditions: for Mouse Murine Percent Survival: 20 mg/kg subcutaneous, harmonized against the comparative vehicle survival rate; for clinical efficacy in murine P. multocida infection: airway tissues collected longitudinally for transcriptomic analysis
In short: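 CD-1 female mice challenged intranasally with P. multocida 46572 at mid-log phase (target 5×10^2 CFU/mouse). Compounds given subcutaneously at 20 mg/kg in buffered (~pH 5.4) propylene glycol/monothioglycerol/water. Mortality observed Days 1–10, analysed by generalized mixed model; survival harmonized against vehicle survival rate.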

[1] = tested on: M. haemolytica (OSU-012103-BHI); test: In vivo bovine M. haemolytica intratracheal lung infection challenge model; conditions: for Significance to T01, mortality: p≤0.2; for Mortality/Euthanization No, % / Mortality/Euthanization No, Number: surviving animals
IL-1β = test: LPS-stimulated whole bovine blood assay, MSD cytokine detection; assay type: cell-based; conditions: for IC50: Bos taurus, LPS-stimulated whole bovine blood, * = enhanced response at concentration indicating potential cytotoxicity; for IL-1β OS of LPS: overstimulation of IL-1β, LPS-stimulated bovine whole blood
[2] = tested on: bovine respiratory disease (BRD); test: Natural bovine respiratory disease (field) studies; assay type: in vivo, cattle; conditions: for Percent failure (treatment failure): 14-day observation, beef calves at moderate risk for BRD, saline 43%
[3] = tested on: bovine alveolar macrophages; test: Phospholipidosis assay (HCS LipidTox, Incucyte); assay type: cell-based; conditions: Bos taurus, Macrophage
Excerpt: The second immunomodulation in vitro assay evaluated the potential for phospholipidosis with the compounds of the invention in bovine alveolar macrophages. This assay is utilized to determine cellular uptake of the compounds of the invention in relevant bovine and murine cell types. This assay utilized Invitrogen's commercially available HCS LipidTox detection kit with an Incucyte real time fluorescence reader to observe variations in EC50 and phospholipidosis profiles based on compound concentrations. Murine intraperitoneal macrophages were also used in the same assay to evaluate species variability for potential correlation with mouse efficacy results. The combination of the bovine whole blood assay and phospholipidosis assays enabled rank ordering for progression into in vivo testing in the murine challenge model.

[4] = tested on: BRD pathogens, M. haemolytica and P. multocida; test: MIC screening panel of BRD pathogens (antibacterial / non-antibacterial)
IL-6 [5] = test: Plasma IL-6 biomarker in bovine M. haemolytica challenge; conditions: for IL-6 levels (plasma) in bovine M. haemolytica challenge: in vivo
IL-6 [6] = test: LPS-stimulated whole bovine blood assay, MSD cytokine detection; assay type: cell-based; conditions: for IC50: Bos taurus, LPS-stimulated bovine whole blood, read-out: IL-6 (IC50 μM)
Excerpt: In order to correlate RNA sequencing data to cytokine changes the whole blood assay was utilized. […] The enhancement result represents an overall stimulation of cytokine levels due to cellular stress or potential toxicity with increasing concentrations of the compound, representing a typical bell shape response curve for immunomodulatory activity.

[7] = tested on: M. haemolytica (OSU-012103-BHI); conditions: for Back Transform LS % Lung with Lesions / Range % Lung with Lesions: sc
[8] = Table 7 study, T02: 0.5 mg/kg subcutaneous
[9] = Table 7 study, T03: 2.5 mg/kg subcutaneous
[10] = read-out: antibacterial / non-antibacterial (MIC for the BRD pathogens)
[11] = Table 9 study, T03: 0.5 mg/kg subcutaneous
[12] = Table 9 study, T04: 2.5 mg/kg subcutaneous
[13] = 4 independent studies with multiple blood donors, FIG. 4
[14] = 32 hours post challenge, dosed 24 hours prior to challenge
[15] = Table 7 study, T04: 10 mg/kg subcutaneous, positive control
[16] = Table 9 study, T05: 10 mg/kg subcutaneous, positive control

In the case of CCCNC[C@]1(O)[C@H](C)O[C@@H](O[C@H]2[C@H](C)[C@@H](O[C@@H]3O[C@H](C)C[C@H](N(C)C(=O)Nc4ccccc4)[C@H]3O)[C@](C)(O)C[C@@H](C)CN[C@H](C)[C@@H](O)[C@](C)(O)[C@@H](CC)OC(=O)[C@@H]2C)C[C@@]1(C)OC [Example H-91, 1-((2S,3R,4S,6R)-2-(((2R,3S,4R,5R,8R,10R,11R,12S,13S,14R)-2-ethyl-3,4,10-trihydroxy-13-(((2R,4R,5S,6S)-5-hydroxy-4-methoxy-4,6-dimethyl-5-((propylamino)methyl)tetrahydro-2H-pyran-2-yl)oxy)-3,5,8,10,12,14-hexamethyl-15-oxo-1-oxa-6-azacyclopentadecan-11-yl)oxy)-3-hydroxy-6-methyltetrahydro-2H-pyran-4-yl)-1-methyl-3-phenylurea], the “Mouse Murine Percent Survival” value (P. multocida 46572; P. multocida challenge) is reported as 38%, the “clinical efficacy in murine P. multocida infection” value (P. multocida 46572) is reported as “clinically efficacious” and the “Significance at .20 level to T01, lung lesions” value (shortened to “Significance at .20 level to T01”) ([1]; Table 6 study, T02: 0.5 mg/kg subcutaneous) is reported as “Yes”. For the same compound, the “Significance at .20 level to T01” value ([1]; Table 6 study, T03: 2.5 mg/kg subcutaneous) was “Yes”, the “Mortality/Euthanization Yes, %” value [1, 8] was 0% and the “Mortality/Euthanization Yes, Number” value [1, 8] was 0. The “Significance to T01, mortality” value [1, 8] was “Yes”, the “Mortality/Euthanization No, %” value [1, 8] was 100% and the “Mortality/Euthanization No, Number” value [1, 8] was 23. For the same compound, the “Mortality/Euthanization Yes, %” value [1, 9] was 8.3%, the “Mortality/Euthanization Yes, Number” value [1, 9] was 2 and the “Significance to T01, mortality” value [1, 9] was “Yes”. The “Mortality/Euthanization No, %” value [1, 9] was 91.7%, the “Mortality/Euthanization No, Number” value [1, 9] was 22 and the IC50 (IL-1β) was 103 µM. The “IL-1β OS of LPS” value (IL-1β) was 130 µM, the Treatment success ([2]; 0.5 mg/kg (T02) subcutaneous Day 0, natural field study to Day 7, saline 43.0%) was 57.9% and the Treatment success ([2]; 2.5 mg/kg (T03) subcutaneous Day 0, natural field study to Day 7, saline 43.0%) was 43.9%. The EC50 [3] was 88 µM, the “in vitro activity vs. clinically relevant pathogenic strains for BRD (M. haemolytica and P. multocida)” value [4] was “lack of in vitro activity” and the MIC [4, 10] was greater than 64 µg/mL. For the same compound, the “IL-6 levels (plasma) in bovine M. haemolytica challenge” value (“IL-6 levels (plasma)” for short) (IL-6 [5]) was “reduction; also recorded: downregulated”, the IC50 (IL-6 [6]) was 181 µM and the “Back Transform LS % Lung with Lesions” value ([7]; 0.5 mg/kg) was 8%. The “Range % Lung with Lesions” value ([7]; 0.5 mg/kg) was 0 to 39%, the “Back Transform LS % Lung with Lesions” value ([7]; 2.5 mg/kg) was 9% and the “Range % Lung with Lesions” value ([7]; 2.5 mg/kg) was 0 to 58%.

In the case of CCCNC[C@]1(O)[C@H](C)O[C@@H](O[C@H]2[C@H](C)[C@@H](O[C@@H]3O[C@H](C)C[C@H](N(C)C(=O)N(C)c4ccccc4)[C@H]3O)[C@](C)(O)C[C@@H](C)CN[C@H](C)[C@@H](O)[C@](C)(O)[C@@H](CC)OC(=O)[C@@H]2C)C[C@@]1(C)OC [Example H-11, 1-((2S,3R,4S,6R)-2-(((2R,3S,4R,5R,8R,10R,11R,12S,13S,14R)-2-ethyl-3,4,10-trihydroxy-13-(((2R,4R,5S,6S)-5-hydroxy-4-methoxy-4,6-dimethyl-5-((propylamino)methyl)tetrahydro-2H-pyran-2-yl)oxy)-3,5,8,10,12,14-hexamethyl-15-oxo-1-oxa-6-azacyclopentadecan-11-yl)oxy)-3-hydroxy-6-methyltetrahydro-2H-pyran-4-yl)-1,3-dimethyl-3-phenylurea], the “Mouse Murine Percent Survival” value (P. multocida 46572; P. multocida challenge) is reported as 36%, the “clinical efficacy in murine P. multocida infection” value (P. multocida 46572) is reported as “clinically efficacious” and the “Significance at .20 level to T01” value ([1]; Table 8 study, T03: 0.5 mg/kg subcutaneous) is reported as “No”. The “Significance at .20 level to T01” value ([1]; Table 8 study, T04: 2.5 mg/kg subcutaneous) was “Yes”, the “Mortality/Euthanization Yes, %” value [1, 11] was 16.7% and the “Mortality/Euthanization Yes, Number” value [1, 11] was 4. The “Significance to T01, mortality” value [1, 11] was “Yes”, the “Mortality/Euthanization No, %” value [1, 11] was 83.3% and the “Mortality/Euthanization No, Number” value [1, 11] was 20. The “Mortality/Euthanization Yes, %” value [1, 12] was 25.0%, the “Mortality/Euthanization Yes, Number” value [1, 12] was 6 and the “Significance to T01, mortality” value [1, 12] was “No”. The “Mortality/Euthanization No, %” value [1, 12] was 75.0%, the “Mortality/Euthanization No, Number” value [1, 12] was 18 and the “number of blood neutrophils” value ([1]; treatment 24 hours prior to challenge, FIG. 8) was “reduced”. The “expression of IL-1β, LPS stimulated whole bovine blood” value (IL-1β; [13]) was “dose dependent reduction”, the IC50 (IL-1β) was 36 µM and the “IL-1β OS of LPS” value (IL-1β) was 32 µM. The Treatment success ([2]; 0.03 mg/kg (T02) subcutaneous Day 0, natural field study to Day 7, saline 32.1%) was 58.3%, the Treatment success ([2]; 0.1 mg/kg (T03) subcutaneous Day 0, natural field study to Day 7, saline 32.1%) was 60.7% and the Treatment success ([2]; 0.3 mg/kg (T04) subcutaneous Day 0, natural field study to Day 7, saline 32.1%) was 51.2%. The Treatment success ([2]; 1 mg/kg (T05) subcutaneous Day 0, natural field study to Day 7, saline 32.1%) was 40.5%, the EC50 [3] was 4 µM and the “in vitro activity vs. clinically relevant pathogenic strains for BRD (M. haemolytica and P. multocida)” value [4] was “lack of in vitro activity”. The MIC [4, 10] was greater than 64 µg/mL, the “reduction in IL-6 levels (geometric mean)” value (IL-6 [5]; [14]) was 51% and the “reduction in IL-6 levels (median value)” value (IL-6 [5]; [14]) was 43%. For the same compound, the “IL-6 levels (plasma)” value (IL-6 [5]) was “reduced; also recorded: downregulated”, the “expression of IL-6, LPS stimulated whole bovine blood” value (IL-6 [6]; [13]) was “dose dependent reduction” and the IC50 (IL-6 [6]) was 22 µM. For the same compound, the “Back Transform LS % Lung with Lesions” value ([7]; 0.5 mg/kg) was 28%, the “Range % Lung with Lesions” value ([7]; 0.5 mg/kg) was 0 to 68% and the “Back Transform LS % Lung with Lesions” value ([7]; 2.5 mg/kg) was 21%. The “Range % Lung with Lesions” value ([7]; 2.5 mg/kg) was 2 to 70%.

In the case of CCCNC[C@]1(O)[C@H](C)O[C@@H](O[C@H]2[C@H](C)[C@@H](O[C@@H]3O[C@H](C)C[C@H](NC)[C@H]3O)[C@](C)(O)C[C@@H](C)CN[C@H](C)[C@@H](O)[C@](C)(O)[C@@H](CC)OC(=O)[C@@H]2C)C[C@@]1(C)OC [Example M9, (2R,3S,4R,5R,8R,10R,11R,12S,13S,14R)-2-ethyl-3,4,10-trihydroxy-13-(((2R,4R,5S,6S)-5-hydroxy-4-methoxy-4,6-dimethyl-5-((propylamino)methyl)-tetrahydro-2H-pyran-2-yl)oxy)-11-(((2S,3R,4S,6R)-3-hydroxy-6-methyl-4-(methylamino)tetrahydro-2H-pyran-2-yl)oxy)-3,5,8,10,12,14-hexamethyl-1-oxa-6-azacyclopentadecan-15-one, reference compound], the “clinical efficacy in murine P. multocida infection” value (P. multocida 46572) is reported as “clinically efficacious”, the Mouse survival (P. multocida 46572; positive control, 20 mg/kg, P. multocida challenge) is reported as 90-100% and the Mortality ([1]; 10 mg/kg, separate study, saline control 38.9%) is reported as 13%. For the same compound, the Mortality ([1]; T02: 10 mg/kg subcutaneous Day -1, M. haemolytica challenge Day 0, 6 animals) was 1/6, the Mortality ([1]; T04: 10 mg/kg subcutaneous Day -1, No challenge, 6 animals) was 0/6 and the “Significance at .20 level to T01” value ([1]; Table 6 study, T04: 10 mg/kg subcutaneous) was “Yes”. The “Mortality/Euthanization Yes, %” value [1, 15] was 12.5%, the “Mortality/Euthanization Yes, Number” value [1, 15] was 3 and the “Mortality/Euthanization No, %” value [1, 15] was 87.5%. The “Mortality/Euthanization No, Number” value [1, 15] was 21, the “Significance to T01, mortality” value ([1]; Table 7 study, T04: 10 mg/kg subcutaneous) was “Yes” and the “Significance at .20 level to T01” value ([1]; Table 8 study, T05: 10 mg/kg subcutaneous) was “yes”. The “Mortality/Euthanization Yes, %” value [1, 16] was 13.0%, the “Mortality/Euthanization Yes, Number” value [1, 16] was 3 and the “Mortality/Euthanization No, %” value [1, 16] was 87.0%. For the same compound, the “Mortality/Euthanization No, Number” value [1, 16] was 20, the “Significance to T01, mortality” value ([1]; Table 9 study, T05: 10 mg/kg subcutaneous) was “Yes” and the IC50 (IL-1β) was roughly 250 µM. For the same compound, the “Percent failure (treatment failure)” value ([2]; 5 mg/kg (T02)) was 19.3%, the “Percent failure (treatment failure)” value ([2]; 10 mg/kg (T03)) was 8.8% and the EC50 [3] was 3740 µM. For the same compound, the MIC ([4]; read-out: MIC for the BRD bacterial strains tested / target pathogens) was no more than 64 µg/mL, the MIC [4, 10] was less than 64 µg/mL and the “IL-6 levels (plasma)” value (IL-6 [5]) was “significantly reduced; also recorded: downregulated”. For the same compound, the IC50 (IL-6 [6]) was greater than 250 µM and the lung lesions ([7]; 10 mg/kg, separate study, saline control 31%) was 20%.
